Tested on: Transport facilitation protein genes
Test: DNA chip mRNA expression in yeast, transport facilitation protein genes (Table 5)
Format: cell-based, Saccharomyces cerevisiae S288C
Experimental: Yeast (Saccharomyces cerevisiae S288C (α SUC2mal mel gap2 CUP1)) were incubated at 25° C. on YPD medium (yeast extract 1%, polypepton 2%, glucose 2%). One of toxic chemical substances was added to the cells at logarithmic growth phase, and the cells were further incubated for two hours. Cells were cultured without any chemical substance in the same condition, and were used as control. Concentrations of the chemical substances were defined to inhibit the growth of the yeast but not lead to death.
After completion of the incubation, the culture was centrifuged to collect the cells. To the cells, sodium acetate buffer (50 mM sodium acetate, 10 mM EDTA, 1% SDS) was added, and the mixture was shaken at 65° C. for five minutes, followed by returning to room temperature, and obtaining the supernatant, of which the procedures were repeated two times. To the supernatant, ½ amount of a solution of phenol/chloroform was added, and the mixture was centrifuged to give a supernatant, which was added with an equal amount of chloroform, and the mixture was centrifuged to give a supernatant. To the supernatant, an equal amount of isopropanol containing 0.3 M sodium acetate was added, and the mixture was allowed to stand at room temperature for 30 minutes, after which the mixture was centrifuged to give a sediment of the whole RNAs. Seventy % ethanol was added to the sediment, and the mixture was again centrifuged to give a sediment, which was then dried and dissolved in water. mRNA was isolated from the whole RNAs as followings. In view of the fact that a poly A chain is attached to the 3′ terminus of mRNA, a polynucleotide having a poly T structure which was immobilized on the surface of latex beads was used to trap the mRNA, and then the mRNA was washed and eluted with spine column (Oligotex-dT30<Super>mRNA Purification Kit, Takara). Reverse transcription of the mRNA was conducted with a reverse transcriptase (Super Script II Reverse Transcriptase; catalogue No. 18064-014, GibcoBRL) using fluorescence-labeled nucleotides to give cDNAs that were introduced with Cy3-dUTP or Cy5-dUTP during the reverse transcription.
The labeled cDNAs were dissolved in TE buffer (10mM Tris-HCl/1 mM EDTA, pH8.0), and the solution was dropped on the DNA chip containing the whole genes of yeast (DNA Chip Research Inc. Japan) so that the cDNAs were hybridized on the DNA chip at 65° C. for over 12 hours. The fluoresces intensity of the DNA chip was read with a scanner, and the ratio relative to the fluorescence intensity resulting from the absence of chemical substance was estimated as the following, which is shown in Tables 1 to 9: […]

C=CC=O [(14), acrolein]
The level of expressed mRNA in the presence of chemical substance/The level of expressed mRNA in the absence of chemical substance (yeast gene YHL035C): 0.8 | The level of expressed mRNA in the presence of chemical substance/The level of expressed mRNA in the absence of chemical substance (yeast gene YHL040C): 1.1 | The level of expressed mRNA in the presence of chemical substance/The level of expressed mRNA in the absence of chemical substance (yeast gene YHL047C): 0.5 | The level of expressed mRNA in the presence of chemical substance/The level of expressed mRNA in the absence of chemical substance (yeast gene YHR026W): 1.3 | The level of expressed mRNA in the presence of chemical substance/The level of expressed mRNA in the absence of chemical substance (yeast gene YHR092C): 1.6 | The level of expressed mRNA in the presence of chemical substance/The level of expressed mRNA in the absence of chemical substance (yeast gene YHR094C): 0.6 | The level of expressed mRNA in the presence of chemical substance/The level of expressed mRNA in the absence of chemical substance (yeast gene YHR175W): 0.7 | The level of expressed mRNA in the presence of chemical substance/The level of expressed mRNA in the absence of chemical substance (yeast gene YIL006W): 1.0 | The level of expressed mRNA in the presence of chemical substance/The level of expressed mRNA in the absence of chemical substance (yeast gene YIL022W): 0.6 | The level of expressed mRNA in the presence of chemical substance/The level of expressed mRNA in the absence of chemical substance (yeast gene YIL056W): 1.0 | The level of expressed mRNA in the presence of chemical substance/The level of expressed mRNA in the absence of chemical substance (yeast gene YIL088C): 1.2 | The level of expressed mRNA in the presence of chemical substance/The level of expressed mRNA in the absence of chemical substance (yeast gene YJL034W): 0.6 | The level of expressed mRNA in the presence of chemical substance/The level of expressed mRNA in the absence of chemical substance (yeast gene YJL212C): 0.8 | The level of expressed mRNA in the presence of chemical substance/The level of expressed mRNA in the absence of chemical substance (yeast gene YJL219W): 1.1 | The level of expressed mRNA in the presence of chemical substance/The level of expressed mRNA in the absence of chemical substance (yeast gene YJR077C): 0.7 | The level of expressed mRNA in the presence of chemical substance/The level of expressed mRNA in the absence of chemical substance (yeast gene YJR106W): 0.9 | The level of expressed mRNA in the presence of chemical substance/The level of expressed mRNA in the absence of chemical substance (yeast gene YJR121W): 0.7 | The level of expressed mRNA in the presence of chemical substance/The level of expressed mRNA in the absence of chemical substance (yeast gene YKL016C): 1.6 | The level of expressed mRNA in the presence of chemical substance/The level of expressed mRNA in the absence of chemical substance (yeast gene YKL146W): 1.0 | The level of expressed mRNA in the presence of chemical substance/The level of expressed mRNA in the absence of chemical substance (yeast gene YKL221W): 1.4 | The level of expressed mRNA in the presence of chemical substance/The level of expressed mRNA in the absence of chemical substance (yeast gene YKR039W): 1.2 | The level of expressed mRNA in the presence of chemical substance/The level of expressed mRNA in the absence of chemical substance (yeast gene YKR067W): 1.3 | The level of expressed mRNA in the presence of chemical substance/The level of expressed mRNA in the absence of chemical substance (yeast gene YLL028W): 0.7 | The level of expressed mRNA in the presence of chemical substance/The level of expressed mRNA in the absence of chemical substance (yeast gene YLR081W): 1.0 | The level of expressed mRNA in the presence of chemical substance/The level of expressed mRNA in the absence of chemical substance (yeast gene YLR092W): 1.4 | The level of expressed mRNA in the presence of chemical substance/The level of expressed mRNA in the absence of chemical substance (yeast gene YLR295C): 1.2 | The level of expressed mRNA in the presence of chemical substance/The level of expressed mRNA in the absence of chemical substance (yeast gene YLR348C): 1.0 | The level of expressed mRNA in the presence of chemical substance/The level of expressed mRNA in the absence of chemical substance (yeast gene YLR378C): 0.4 | The level of expressed mRNA in the presence of chemical substance/The level of expressed mRNA in the absence of chemical substance (yeast gene YMR011W): 0.6 | The level of expressed mRNA in the presence of chemical substance/The level of expressed mRNA in the absence of chemical substance (yeast gene YMR162C): 1.0 | The level of expressed mRNA in the presence of chemical substance/The level of expressed mRNA in the absence of chemical substance (yeast gene YMR203W): 0.7 | The level of expressed mRNA in the presence of chemical substance/The level of expressed mRNA in the absence of chemical substance (yeast gene YNL055C): 0.9 | The level of expressed mRNA in the presence of chemical substance/The level of expressed mRNA in the absence of chemical substance (yeast gene YNL259C): 1.4 | The level of expressed mRNA in the presence of chemical substance/The level of expressed mRNA in the absence of chemical substance (yeast gene YNR072W): 1.0 | The level of expressed mRNA in the presence of chemical substance/The level of expressed mRNA in the absence of chemical substance (yeast gene YOL119C): 2.4 | The level of expressed mRNA in the presence of chemical substance/The level of expressed mRNA in the absence of chemical substance (yeast gene YOL156W): 0.9 | The level of expressed mRNA in the presence of chemical substance/The level of expressed mRNA in the absence of chemical substance (yeast gene YOL163W): 1.2 | The level of expressed mRNA in the presence of chemical substance/The level of expressed mRNA in the absence of chemical substance (yeast gene YOR035C): 0.9 | The level of expressed mRNA in the presence of chemical substance/The level of expressed mRNA in the absence of chemical substance (yeast gene YOR130C): 1.3 | The level of expressed mRNA in the presence of chemical substance/The level of expressed mRNA in the absence of chemical substance (yeast gene YOR153W): 0.3 | The level of expressed mRNA in the presence of chemical substance/The level of expressed mRNA in the absence of chemical substance (yeast gene YOR270C): 0.7 | The level of expressed mRNA in the presence of chemical substance/The level of expressed mRNA in the absence of chemical substance (yeast gene YOR273C): 0.5 | The level of expressed mRNA in the presence of chemical substance/The level of expressed mRNA in the absence of chemical substance (yeast gene YOR316C): 1.0 | The level of expressed mRNA in the presence of chemical substance/The level of expressed mRNA in the absence of chemical substance (yeast gene YOR328W): 0.8 | The level of expressed mRNA in the presence of chemical substance/The level of expressed mRNA in the absence of chemical substance (yeast gene YOR332W): 1.1 | The level of expressed mRNA in the presence of chemical substance/The level of expressed mRNA in the absence of chemical substance (yeast gene YOR348C): 1.2 | The level of expressed mRNA in the presence of chemical substance/The level of expressed mRNA in the absence of chemical substance (yeast gene YPL036W): 0.6 | The level of expressed mRNA in the presence of chemical substance/The level of expressed mRNA in the absence of chemical substance (yeast gene YPL134C): 1.4 | The level of expressed mRNA in the presence of chemical substance/The level of expressed mRNA in the absence of chemical substance (yeast gene YPL224C): 1.4 | The level of expressed mRNA in the presence of chemical substance/The level of expressed mRNA in the absence of chemical substance (yeast gene YPL265W): 1.1 | The level of expressed mRNA in the presence of chemical substance/The level of expressed mRNA in the absence of chemical substance (yeast gene YPL271W): 1.3 | The level of expressed mRNA in the presence of chemical substance/The level of expressed mRNA in the absence of chemical substance (yeast gene YPR124W): 0.4 | The level of expressed mRNA in the presence of chemical substance/The level of expressed mRNA in the absence of chemical substance (yeast gene YPR192W): 0.7 | The level of expressed mRNA in the presence of chemical substance/The level of expressed mRNA in the absence of chemical substance (yeast gene YPR194C): 1.0

From patent US8192962B2, “Processes for detecting toxic substances” (Daikin Industries, Ltd., priority 2001, dated 2012)
